Assay results: patent publication US20190375778A1, “ADENOSINE DERIVATIVES FOR USE IN THE TREATMENT OF CANCER” (NuCana plc, priority 2016, published 2019)
Read-outs that look alike come from different tables or passages of the source.

Key:
Format in all cases: cell-based
Murine leukemia L1210 = assay: Cell proliferation (Coulter count) assay, L1210; conditions: Mus musculus, 48 h, read-out: absolute IC50, L1210
Procedure, shortened: (§1)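 Cells grown in DMEM with 10% FBS. HeLa seeded at 10 000 cells/well, compound added after 24 h, counted day 5; L1210 and CEM seeded at 60 000 cells/well with compound, counted after 48 h and 72 h respectively. IC50 is concentration halving proliferation by Coulter count.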

human T-lymphocyte CEM = assay: Cell proliferation (Coulter count) assay, CEM; conditions: 72 h, read-out: absolute IC50, CEM
Procedure, shortened: as §1

[1] = tested on: human cervix carcinoma HeLa cells; assay: Cell proliferation (Coulter count) assay, HeLa; conditions: 120 h, cell count on day 5, read-out: absolute IC50, HeLa
Procedure, shortened: as §1

CCRFCEM = assay: CellTiterGlo viability assay, CCRFCEM; conditions: Homo sapiens, CCRF-CEM, read-out: IC50 CCRFCEM
Procedure, shortened: (§2)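 Viability is read by CellTiterGlo after three days of treatment. Each compound is tested at nine concentrations spaced 3.16-fold, spanning 198 μM to 19.9 nM final, in duplicate wells with DMSO held at 0.5%.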

MiaPaCa-2 = assay: CellTiterGlo viability assay, MiaPaCa-2; conditions: Homo sapiens, read-out: IC50 MiaPaCa-2
Description: (§3) In vitro viability assay were performed to assess the effects of compounds on cell viability in selected cell lines over ˜72 hrs using the CellTiterGlo (CTG, Promega-G7573) assay. The tests were performed in duplicates with treatment of compounds at 9 points, 3.16 folds titration in 96 well plates over ˜72 hrs. The compound starting concentrations were 198 μM. Cell viability assay using CellTiterGlo in 96-well plate were performed. Compound treatment 72 hrs, standard growth conditions, duplicates. Compounds were dissolved to 40 mM with thawed […]. Compounds were serially diluted at 3.16 fold in thawed DMSO, and warmed to 37° C. before being dissolved in media (2 μl+200 μl). After compounds were dissolved in media, media containing compounds were warmed to 37° C. in incubator and then compounds in media were added to cell plates (50 μl+50 μl) in duplicates. The compounds' final concentrations were from […] to 19.9 nM. All compound solubilities were checked and recorded again, then the plates were transferred to CO2 tissue culture incubator immediately and incubated for 3 days. DMSO final concentration is 0.5%.

SW620 = assay: CellTiterGlo viability assay, SW620; conditions: Homo sapiens, read-out: IC50 SW620
Description: as §3

HepG2 = assay: CellTiterGlo viability assay, HepG2; conditions: Homo sapiens, read-out: IC50 HepG2
Description: as §3

HT29 = assay: CellTiterGlo viability assay, HT29; conditions: Homo sapiens, read-out: IC50 HT29
Description: as §3

BxPC-3 = assay: CellTiterGlo viability assay, BxPC-3; conditions: Homo sapiens, read-out: IC50 BxPC-3
Description: as §3

MV4-11 = assay: CellTiterGlo viability assay, MV4-11; conditions: Homo sapiens, read-out: IC50 MV4-11
Procedure, shortened: as §2

RL = assay: CellTiterGlo viability assay, RL; conditions: Homo sapiens, RL, read-out: IC50 RL
Procedure, shortened: as §2

MOLT-4 = assay: CellTiterGlo viability assay, MOLT-4; conditions: Homo sapiens, read-out: IC50 MOLT-4
Description: as §3

Q: How did the IC50 (Murine leukemia L1210) turn out when CCCCCOC(=O)[C@H](C)NP(=O)(OC[C@H]1O[C@@H](n2c(Cl)nc3c(N)ncnc32)C(O)C1O)Oc1cccc2ccccc12 (stereo partly drawn) [Compound E, (2S)-Pentyl 2-(((((2R,3S,4R,5R)-5-(6-amino-8-chloro-9H-purin-9-yl)-3,4-dihydroxy-tetrahydrofuran-2-yl)methoxnaphthalene-1-yloxy)phosphoryl)amino)propanoate] was run?
A: Its IC50 is 5 to 15 µM.

Q: What about the IC50 (human T-lymphocyte CEM) of the same compound?
A: The IC50 was 0.1 to 5 µM.

Q: And the IC50 [1]?
A: Its IC50 is 0.1 to 5 µM.

Q: What about the IC50 (CCRFCEM; 72 h) of the same compound?
A: Its IC50 is 0.1 to 5 µM.

Q: And the IC50 (MiaPaCa-2; MIA PaCa-2, 72 h)?
A: Its IC50 is 0.1 to 5 µM.

Q: What about the IC50 (SW620; SW-620, 72 h) of the same compound?
A: Its IC50 is 0.1 to 5 µM.

Q: And the IC50 (HepG2; HepG2, 72 h)?
A: The IC50 was 0.1 to 5 µM.

Q: And the IC50 (HT29; HT-29, 72 h)?
A: The IC50 was 0.1 to 5 µM.

Q: And the IC50 (BxPC-3; BXPC-3, 72 h)?
A: The IC50 was 5 to 15 µM.

Q: And the IC50 (MV4-11; MV4-11, 72 h)?
A: Its IC50 is 0.1 to 5 µM.

Q: And the IC50 (RL; 72 h)?
A: The IC50 was 5 to 15 µM.

Q: And the IC50 (MOLT-4; MOLT-4, 72 h)?
A: Its IC50 is 0.1 to 5 µM.

Q: Which results are given for Nc1ncnc2c1nc(Cl)n2[C@@H]1O[C@H](COP(=O)(NCC(=O)OCc2ccccc2)NCC(=O)OCc2ccccc2)C(O)C1O (some centres unmarked) [Compound AC, 8-Chloroadenosine 5′-O-bis(benzyloxy-glycin-N-yl) phosphate]?
A: IC50 (Murine leukemia L1210): 0.1 to 5 µM; IC50 (human T-lymphocyte CEM): 0.1 to 5 µM; IC50 [1]: 0.1 to 5 µM; IC50 (CCRFCEM; CellTiterGlo, 72 hrs): 0.1 to 5 µM; IC50 (MiaPaCa-2; MIA PaCa-2, CellTiterGlo, 72 hrs): 0.1 to 5 µM; IC50 (SW620; SW-620, CellTiterGlo, 72 hrs): 0.1 to 5 µM; IC50 (HepG2; HepG2, CellTiterGlo, 72 hrs): 0.1 to 5 µM; IC50 (HT29; HT-29, CellTiterGlo, 72 hrs): 0.1 to 5 µM; IC50 (BxPC-3; BXPC-3, CellTiterGlo, 72 hrs): 5 to 15 µM; IC50 (MV4-11; MV4-11, CellTiterGlo, 72 hrs): 0.1 to 5 µM; IC50 (RL; CellTiterGlo, 72 hrs): 0.1 to 5 µM; IC50 (MOLT-4; MOLT-4, CellTiterGlo, 72 hrs): 0.1 to 5 µM

Q: CC(C)C[C@H](NP(=O)(OC[C@H]1O[C@@H](n2c(Cl)nc3c(N)ncnc32)C(O)C1O)Oc1ccccc1)C(=O)OCc1ccccc1 (stereo partly drawn) [V, 5′-([(Benzyloxy-L-leucin-N-yl)-phenyl]-phosphatyl) 8-chloroadenosine] was tested. Which IC50 (Murine leukemia L1210) did it give?
A: Its IC50 is 15 to 100 µM.

Q: And the IC50 [1]?
A: The IC50 was 0.1 to 5 µM.

Q: What about the IC50 (CCRFCEM; 72 h) of the same compound?
A: The IC50 was 5 to 15 µM.

Q: What about the IC50 (MiaPaCa-2; MIA PaCa-2, 72 h) of the same compound?
A: The IC50 was 0.1 to 5 µM.

Q: And the IC50 (SW620; SW-620, 72 h)?
A: Its IC50 is 0.1 to 5 µM.

Q: And the IC50 (HepG2; HepG2, 72 h)?
A: Its IC50 is 0.1 to 5 µM.

Q: And the IC50 (HT29; HT-29, 72 h)?
A: The IC50 was 0.1 to 5 µM.

Q: And the IC50 (BxPC-3; BXPC-3, 72 h)?
A: Its IC50 is 5 to 15 µM.

Q: What about the IC50 (MV4-11; MV4-11, 72 h) of the same compound?
A: The IC50 was 0.1 to 5 µM.

Q: What about the IC50 (RL; 72 h) of the same compound?
A: The IC50 was 15 to 100 µM.

Q: What about the IC50 (MOLT-4; MOLT-4, 72 h) of the same compound?
A: The IC50 was 0.1 to 5 µM.

Q: With C[C@H](NP(=O)(OC[C@H]1O[C@@H](n2c(Cl)nc3c(N)ncnc32)C(O)C1O)Oc1cccc2ccccc12)C(=O)OCc1ccccc1 (stereo partly drawn) [Compound D, (2S)-Benzyl 2-(((((2R,3S,4R,5R)-5-(6-amino-8-chloro-9H-purin-9-yl)-3,4-dihydroxy-tetrahydrofuran-2-yl)methoxynaphthalene-1-yloxy)phosphoryl)amino)propanoate] as the compound, how does the IC50 (Murine leukemia L1210) read?
A: Its IC50 is 5 to 15 µM.

Q: And the IC50 (human T-lymphocyte CEM)?
A: Its IC50 is 0.1 to 5 µM.

Q: What about the IC50 [1] of the same compound?
A: The IC50 was 0.1 to 5 µM.

Q: And the IC50 (CCRFCEM; 72 h)?
A: Its IC50 is 0.1 to 5 µM.

Q: And the IC50 (MiaPaCa-2; MIA PaCa-2, 72 h)?
A: The IC50 was 0.1 to 5 µM.

Q: And the IC50 (SW620; SW-620, 72 h)?
A: The IC50 was 0.1 to 5 µM.

Q: What about the IC50 (HepG2; HepG2, 72 h) of the same compound?
A: Its IC50 is 0.1 to 5 µM.

Q: And the IC50 (HT29; HT-29, 72 h)?
A: Its IC50 is 0.1 to 5 µM.

Q: What about the IC50 (BxPC-3; BXPC-3, 72 h) of the same compound?
A: The IC50 was 5 to 15 µM.

Q: What about the IC50 (MV4-11; MV4-11, 72 h) of the same compound?
A: The IC50 was 0.1 to 5 µM.

Q: What about the IC50 (RL; 72 h) of the same compound?
A: The IC50 was 5 to 15 µM.

Q: What about the IC50 (MOLT-4; MOLT-4, 72 h) of the same compound?
A: The IC50 was 0.1 to 5 µM.
